# Data taken from PubChem BioAssay AID488890 (Southern Research Specialized Biocontainment Screening …, 2010).
# Results filed as inconclusive are left out. Activity calls are given as the source filed them. How the calls were made is not given here.
# Test system: Mycobacterium tuberculosis non-replicating, growth inhibition
# Test: growth inhibition of non-replicating M. tuberculosis (AID 488890)
row,SMILES,IC50
1,Cc1ccc(C2=N/C(=C\c3cccnc3)C(=O)O2)cc1,6.58 µM
2,Cn1c(=O)c(Oc2ccc(F)cc2)c(O)c2ccccc21,8.27 µM
3,COc1cccc(NC(=O)c2cnc(SC)nc2)c1,10.4 µM (inactive)
4,FC(F)(F)c1ccc(-c2nnc(-c3cccnc3)o2)cc1,6.48 µM
5,O=c1ccn(-c2ccccc2)[nH]1,7.52 µM
6,O=C(OCc1nc2ccccc2s1)c1ccc(Br)o1,3.63 µM
7,CN(CCCCOc1ccc(F)cc1)Cc1ccccc1,22.9 µM (inactive)
8,O=C1Nc2ccccc2/C1=C/C(=O)c1cccs1,13.4 µM (inactive)
9,CN1CCN(Cc2cc(C(C)(C)C)c(O)c(C(C)(C)C)c2)CC1,11.8 µM (inactive)
10,Cc1nc(-c2ccc(C(F)(F)F)cc2)sc1C(=O)NN,23.5 µM (inactive)
11,CCOc1ccc(C(=O)C(CN2CCOCC2)c2ccccc2)cc1 (configuration not stated),3.62 µM
12,CCCS(=O)(=O)c1nnnn1-c1cccc(OC)c1,3.56 µM
13,CSc1ccc(COC(=O)CCS(=O)(=O)c2ccc(C)cc2)cc1,19.2 µM (inactive)
14,CCOc1ccc(-c2nnc(NC(=O)c3ccc(OCC(C)C)c(OC)c3)o2)cc1,24.1 µM (inactive)
15,O=C(NC(=S)NCCc1ccccc1)c1ccccc1,10.4 µM (inactive)
16,CCCCN1CCC(O)(c2ccccc2)C(C(=O)c2ccccc2)C1 (configuration not stated),4.86 µM
17,CCC(CC)COC(=O)C(C#N)c1nc2ccccc2nc1N1CCN(CC)CC1 (configuration not stated),15.4 µM (inactive)
18,Cc1occc1C(=O)N/N=C/c1ccc[nH]1,11.9 µM (inactive)
19,Cc1cccc(Cc2cnc(NC(=O)C3=NCCN3)s2)c1,4.82 µM
20,O=c1c2cc(Cl)ccc2nc(-c2ccc([N+](=O)[O-])cc2)n1O,2.2 µM
21,c1ccc(C2=Nc3ccccc3OC2)cc1,4.54 µM
22,COc1ccc(/C=N/NC(=O)c2ccncc2)cc1CN1CCOCC1,4.37 µM
23,Fc1ccc(COc2ccc(-c3nnco3)cc2)cc1,10.8 µM (inactive)
24,O=C(Oc1ccccc1)c1ccc(NC(=O)c2ccco2)cc1,7.33 µM

row,SMILES,IC50
1,Cc1cccc2nc(-c3cccnc3)c(NCCC(C)C)n12,16.1 µM (inactive)
2,O=C(NNc1ccc([N+](=O)[O-])cc1)C1CC1c1ccccc1 (configuration not stated),8.96 µM
3,O=[N+]([O-])c1ccc(/C=N/NS(=O)(=O)c2ccc(Cl)cc2)o1,14.7 µM (inactive)
4,Cc1nnc(-c2ccccc2)c(=O)n1/N=C/c1c(O)ccc2ccccc12,1.31 µM
5,O=C(NC1CCCCC1)c1nc2c(nnn2Cc2ccccc2Cl)c(=O)[nH]1,3.72 µM
6,CN1C(=O)N(C)c2ccc(C=O)c3cccc1c23,3.65 µM
7,Cc1ccc(-c2nnc(NC(=O)c3ccco3)o2)c(C)c1,6.85 µM
8,CC(=O)OCCNc1cc(SCc2ccco2)c2nonc2c1[N+](=O)[O-],3.04 µM
9,O=C(Nc1nc2ccccc2n1CCN1CCCC1)c1ccc(Cl)cc1,12.5 µM (inactive)
10,C#CCSc1nnc(-c2cccc3ccccc23)o1,3.46 µM
11,COc1cc(/C=N/N(C)C)ccc1OC(=O)c1cccs1,8.4 µM
12,CCOC(=O)Nc1ccc2c(c1)N(C(=O)CCN1CCOCC1)c1ccccc1S2=O (configuration not stated),3.62 µM
13,COCc1cc(=O)[nH]c(Nc2nc3ccccc3o2)n1,1.58 µM
14,Cc1cccc(OC(=O)c2sc3ncn(C)c(=O)c3c2C)c1,4.61 µM
15,O=[N+]([O-])c1ccc(CN2CCN(c3ccccc3Cl)CC2)o1,3.83 µM
16,O=C(NCc1cccs1)c1cc(-c2ccc(O)cc2)on1,23.3 µM (inactive)
17,COc1cccc(/C=N/N2C(=O)CSC2=S)c1O,23.9 µM (inactive)
18,CCCNC(=O)COC(=O)c1cc2c(=O)n3ccccc3nc2s1,23.6 µM (inactive)
19,COc1ccc(N2C(=O)CC(Sc3nc4ccccc4s3)C2=O)cc1OC (configuration not stated),14.2 µM (inactive)
20,CCCOC(=O)c1ccc(OC(=O)c2ccco2)cc1,21.9 µM (inactive)
21,CCc1ccc(Cc2cnc(NC(=O)C3=NCCN3)s2)cc1,2.85 µM
22,C=Cc1cccc(NC(=O)COc2ccccc2)c1,5.75 µM
23,CCOC(=O)c1c(C)[nH]c(C)c1C(=O)COC(=O)c1ccc([N+](=O)[O-])s1,1.65 µM
24,O=C(CC1CCCCC1)NCc1ccccc1,5.92 µM

row,SMILES,IC50
1,O=[N+]([O-])c1ccc(Nc2ccccc2)c2nonc12,2.87 µM
2,CCOC(=O)CN(C#N)c1nc(N(C)C)nc(N(C)C)n1,8.42 µM
3,CC(C)OC(=O)c1c2c(n3ccccc13)C(=O)c1ccccc1C2=O,9.5 µM
4,CCOc1ccc(OC(=O)c2ccc3c(=O)n4c(nc3c2)CCC4)cc1,0.5 µM
5,O=C(N/N=C\c1ccc([N+](=O)[O-])s1)c1cncc(Br)c1,2.02 µM
6,O=C(CCC1CCCC1)Nc1ccc(Br)cn1,3.88 µM
7,O=C(COC(=O)c1ccc(Cl)s1)c1ccc[nH]1,6.38 µM
8,CCn1cc(C(=O)NC(C)C23CC4CC(CC(C4)C2)C3)cn1 (configuration not stated),2.73 µM
9,COc1ccc(OCCSc2nnc(Cc3cccc4ccccc34)n2N)cc1,23.6 µM (inactive)
10,O=C1/C(=C/C=C/c2ccccc2)Oc2c1ccc(O)c2CN1CCN(CCO)CC1,36.8 µM (inactive)
11,O=C(CC1CCCC1)OCn1nnc2ccccc2c1=O,14 µM (inactive)
12,O=C(Nc1nnc(-c2cc(Cl)ccc2Cl)o1)C1=COCCO1,22 µM (inactive)
13,CC(=O)CCC1CC(c2ccc(Cl)cc2)=NO1 (configuration not stated),2.39 µM
14,O=C1/C(=C/c2cccs2)COc2ccccc21,13.9 µM (inactive)
15,Cn1c(SCc2c(F)cccc2Cl)nc2c(c1=O)SCC2,28.2 µM (inactive)
16,O=C(COC(=O)CCc1c[nH]c2ccccc12)NCc1ccc(Cl)cc1,7.82 µM
17,Cc1ccc2c(c1)c1c3n2CCN=C3CCC1,15.2 µM (inactive)
18,Cc1ccc(C(=O)OCC(=O)N2CCCCCC2)c(O)c1,8.95 µM
19,O=C(Nc1ccccn1)c1ccc(C(=O)c2ccccc2)cc1,18.4 µM (inactive)
20,COc1ccc(/C=N/Nc2cc(C)nc(-n3nc(C)cc3C)n2)cc1,3.25 µM
21,COc1cccc2cc(C(=O)NCc3ccc(F)cc3)c(=N)oc12,8.67 µM
22,O=C(COc1cccc2ccccc12)Nc1ccc(Cl)cc1C(=O)O,6.24 µM
23,O=C1CC(N2CCN(Cc3ccccc3)CC2)C(=O)N1CCc1ccccc1 (configuration not stated),22.3 µM (inactive)
24,O=C(NCc1ccc(F)cc1)c1cnccn1,3.86 µM

row,SMILES,IC50
1,COC(=O)COc1cccc(/C=N/NC(=O)CCSc2ccccc2)c1,9.71 µM
2,Cc1ccc(NC(=O)COCC(=O)Nc2ccc(C)cc2)cc1,14.6 µM (inactive)
3,CCCOc1ccc(CCC(=O)N/N=C/c2ccc([N+](=O)[O-])o2)cc1,4.22 µM
4,COc1cc(OC)nc(-n2ncc(Br)c(Br)c2=O)n1,6.07 µM
5,COc1ccccc1C1=NOC(COC(=O)c2ccc([N+](=O)[O-])cc2)C1 (configuration not stated),18.8 µM (inactive)
6,O=c1c2c([N+](=O)[O-])cc([N+](=O)[O-])cc2nc2ccccn12,9.45 µM
7,O=C(Cc1cccs1)N/N=C\c1ccc([N+](=O)[O-])s1,11.6 µM (inactive)
8,CCCNC1=C(N(C(C)=O)c2cccc(F)c2)C(=O)c2ccccc2C1=O,5.89 µM
9,CC(C)(C)c1ccc(S(=O)(=O)NNC(=O)c2cc3ccccc3[nH]2)cc1,> 25 µM (inactive)
10,O=C(N/N=C/c1ccc(Br)s1)c1cccnc1,9.43 µM
11,CCCNC(=O)N1CCC(c2ccc3c(c2)OCO3)CC1,4.71 µM
12,O=C(COc1ccccc1)Nc1nnc(-c2ccc3c(c2)CCCC3)o1,0.9 µM
13,CN1CCC(O)(c2ccccc2)C(C(=O)c2ccccc2)C1 (configuration not stated),4.85 µM
14,Cc1ccc(NC(=O)COc2ccc3c(c2)CCC3)nc1,6.66 µM
15,CCOc1ccc(Nc2ccc([N+](=O)[O-])c3nonc23)cc1,1.72 µM
16,CCCn1c(NC(=O)c2ccccc2)nc2ccccc21,8.74 µM
17,O=C(COC(=O)c1ccc(Br)o1)NC1CCCCC1,9.79 µM
18,COc1ccc([N+](=O)[O-])c(S(=O)(=O)c2ccc(Cl)cc2)n1,1 µM
19,CCCCCCCCCCn1cc(C(C)=O)c(=O)[nH]c1=O,4.74 µM
20,CCOC(=O)CNC(=O)N1c2ccccc2Sc2ccccc21,4.81 µM
21,Cc1cc(NCCCn2ccnc2)n2ncc(-c3ccc(Cl)cc3)c2n1,13.1 µM (inactive)
22,CCOC(=O)C(=CNNc1cccc(Cl)c1)C(=O)OCC,18.7 µM (inactive)
23,CCOC(=O)COc1ccc(C(=O)NC2CCCCC2)cc1,4.04 µM
24,COc1ccc(C(=O)Oc2cccc3cccnc23)cc1S(=O)(=O)N1CCOCC1,1.19 µM

row,SMILES,IC50
1,CCOC(=O)C(C)(C)n1nnc(-c2ccc([N+](=O)[O-])cc2)n1,14.3 µM (inactive)
2,CC12CC3CC(C)(C1)CC(C(=O)N1CCCC1)(C3)C2,24 µM (inactive)
3,CC(C)C(=O)N1CCN(c2ccc(NC(=O)c3ccc([N+](=O)[O-])o3)cc2)CC1,1.24 µM
4,CCCC(=O)N1CCC(Cc2ccccc2)CC1,3.47 µM
5,COC(=O)c1ccc(C(=O)NC2CCCc3c2cnn3-c2cc(F)cc(F)c2)nc1 (configuration not stated),9.55 µM
6,O=C(N/N=C/c1ccccn1)c1cc([N+](=O)[O-])cc([N+](=O)[O-])c1,9.98 µM
7,O=C(OCC(=O)N1CCCCC1)c1cc2ccccc2cc1O,5.84 µM
8,O=C1/C(=C\c2ccco2)SC(=S)N1c1ccc(O)cc1,33.3 µM (inactive)
9,O=C(Nc1nc2ccccc2n1CCOc1ccc(Cl)cc1)c1ccco1,14.4 µM (inactive)
10,CCc1cc(OCCCCNCc2ccccc2)ccc1Cl,11.3 µM (inactive)
11,CCCCCCNC(=O)c1ccc(Br)o1,< 0.1 µM
12,CC1(C)OC(c2ccccc2)=C/C(=C\C=N\NC(=O)c2ccncc2)O1,1.75 µM
13,O=C(Nc1nnc(-c2ccc3c(c2)CCCC3)o1)c1c(F)cccc1F,3.12 µM
14,COc1cc(/C=N/Nc2cccc3cccnc23)cc(OC)c1O,15.2 µM (inactive)
15,Cc1cc(C)c2nc(/N=C(\N)NC(=O)Nc3ccccc3)nc(C)c2c1,13.3 µM (inactive)
16,Cc1[nH]nc2c1C(c1ccc(OC(=O)c3ccco3)cc1)C(C#N)=C(N)O2 (configuration not stated),6.69 µM
17,CCOC(=O)C1=C(C)C/C(=N\NC(=O)c2ccccc2O)CC1,4.22 µM
18,Cc1ccn2c(NC3CCCC3)c(-c3ccccn3)nc2c1,12 µM (inactive)
19,Cc1ccc(-c2noc(CCC(=O)Nc3cccc(C#N)c3)n2)cc1,17.4 µM (inactive)
20,Cc1cc(NCc2ccccn2)n2nc(C)c(-c3ccccc3)c2n1,1.82 µM
21,N#C/C(N=Nc1ccccc1O)=N\Nc1ccccc1O,2.67 µM
